Measured values reported in patent publication US6972287B1, “Method of inhibiting amyloid protein aggregation and imaging amyloid deposits” (Pfizer Inc., priority 1999, dated 2005).
Several values for one entry are separate records, joined by “and”; a condition that tells them apart may be missing. Equal entries are not always repeated.

What was measured:
Aβ (1-40) peptide = molecular target: T1, Aβ (1-40) peptide (Homo sapiens, UniProt P05067); experiment: BAPA (Beta-Amyloid Peptide Aggregation, pH 6.0, filtration); format: biochemical; details: Aβ (1-40) 33 μM, pH 6.0, 2 to 4 hours at room temperature; replicate values; letter = synthetic lot
T1 construct: 10 μL 0.5 mg/mL Aβ (1-40) peptide in 20% HFIP
T1 sequence (P05067 672-711 limits assumed): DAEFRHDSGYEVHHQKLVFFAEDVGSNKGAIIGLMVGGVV
How it was run: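 Aggregation of human Aβ (1-40) peptide was measured in an endpoint filtration assay. The peptide was first reduced to monomer with hexafluoroisopropanol (HFIP), then used at 33 μM so it would aggregate at pH 6.0, and incubated for 2 to 4 hours at room temperature. Filter plates were washed with 100 μL phosphate buffer, impregnated with Meltilex, and counted on a Microbeta counter with background correction.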

Aβ(1-40) [1] = molecular target: T2, Aβ(1-40) (Homo sapiens, UniProt P05067); experiment: BASST (Beta-Amyloid Self-Seeding, Thioflavin T), inhibitors of self-seeded amyloid fibril growth; format: biochemical; details: 30 μM soluble Aβ(1-40), 37° C., 3 to 5 hours, thioflavin T fluorescence; replicate values; letter = synthetic lot; read-out: BASST (IC50 = μM)
T2 construct: […]; purchased Bachem, Torrance, Calif
T2 sequence (P05067 672-711 limits assumed): as above
How it was run: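 Self-seeded Aβ(1-40) fibril growth was run in 50 mM sodium phosphate pH 7.5, 100 mM NaCl, 0.02% NaN3, 1 M urea. Compounds were tested in 3-fold serial dilutions (top 100 μM final): 10 min on ice, then 3–5 h at 37 °C. Fibrils were read by 5 μM thioflavin T fluorescence (ex 440/em 485 nm).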

Aβ (1-42) = molecular target: T3, Aβ (1-42) (Homo sapiens, UniProt P05067); experiment: BATYM assay (Aβ (1-42) aggregation, Thioflavin T fluorescence); format: biochemical; details: Aβ 1-42 final concentration 100 μM, 37° C., 1 day, letter = synthetic lot
T3 construct: Required Aβ (1-42) (California Peptide) was dried from its hexafluoroisopropanol (HFIP) stock solution; purchased California Peptide
T3 sequence (P05067 672-713 limits assumed): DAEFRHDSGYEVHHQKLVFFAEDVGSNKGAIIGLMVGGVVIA
How it was run: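 Aβ (1-42) (100 μM final, PBS pH 7.4 from DMSO) incubated with compound at 37° C. for 1 day. Aggregation read by ThT (30 μM, glycine-NaOH pH 8.5) fluorescence, ex 440/em 485 nm; inhibition as fluorescence reduction corrected for compound-alone signal, IC50 by curve fitting from two experiments in triplicate.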

Aβ(1-40) [2] = molecular target: T2, Aβ(1-40); experiment: BASSR (Beta-Amyloid Self-Seeding Radioassay), inhibitors of self-seeded amyloid fibril growth; format: biochemical; details: 30 μM soluble Aβ(1-40) + 125I-labeled Aβ(1-40), 37° C., 3 to 5 hours; replicate values; letter = synthetic lot; ppt = precipitate; V-shaped = inhibition followed by precipitation
How it was run: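 Self-seeded growth of ^125I-labeled Aβ(1-40) fibrils in 50 mM sodium phosphate pH 7.5, 100 mM NaCl, 0.02% NaN3, 1 M urea; compound (3-fold dilutions from 100 μM final) preincubated 10 min on ice, then 3–5 h at 37° C. Fibrils collected by vacuum filtration on 0.2 μm filters and counted for radioactivity.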

| melting point [°C] | IC50 (Aβ (1-40) peptide) | IC50 (Aβ(1-40) [1]) | IC50 (Aβ (1-42)) | IC50 (Aβ(1-40) [2]) | Structure (SMILES) |
| --- | --- | --- | --- | --- | --- |
| 208 to 209 | > 60 µM | 2 µM and 3 µM | 11.7 µM | 4.5 µM and 5 µM (3×) and 15 µM | COc1cc(Nc2ccc(CCc3ccc(Cl)c(Cl)c3)cc2)c(C(=O)O)cc1[N+](=O)[O-] [Example 3, 2-{4-[4-(3,4-Dichloro-phenyl)-ethyl]phenylamino}-4-methoxy-5-nitrobenzoic acid] |
| 215 to 217 | 67 µM | 3 µM and 4 µM and 8 µM | 26.3 µM and 30.7 µM | 30 µM and > 100 µM | O=C(O)c1ccccc1Nc1ccc(CCc2ccc(O)c(O)c2)cc1 [Example 4, 2-{4-[2-(3,4-Dihydroxy-phenyl)-ethyl]-phenylamino}benzoic acid] |
| 115 to 117 | 74 µM | 4.5 µM | 10 µM | 70 µM and > 100 µM | CCCCN(CCCC)c1ccc(CCc2ccc(Nc3ccccc3C(=O)O)cc2)cc1 [Example 5, 2-{4-[2-(4-Dibutylamino-phenyl)-ethyl]phenylamino}benzoic acid] |
| 120 to 126 | 75 µM | 1 µM and 2 µM | 20.1 µM and 28.2 µM and 38.6 µM | 20 µM and 30 µM and 52 µM and 40 µM | O=C(O)c1ccccc1Nc1ccc(CCCc2ccc(Cl)c(Cl)c2)cc1 [Example 9, 2-{4-[3-(3,4-Dichlorophenyl)-propyl]phenylamino}-benzoic acid] |
| 153 to 155 | > 60 µM and 7 µM | 1 µM and 1.2 µM | 8.52 µM and 7.26 µM and 7.07 µM | 16 µM and 12 µM and 15 µM and 11 µM | O=C(O)c1cc([N+](=O)[O-])ccc1Nc1ccc(CCCc2ccc(Cl)c(Cl)c2)cc1 [Example 15, 2-{4-[3-(3,4-Dichlorophenyl)propyl]phenylanino}-5-nitrobenzoic acid] |
| > 220 | 9 µM and > 40 µM and 53 µM and 12 µM | 30 µM and > 100 µM | > 100 µM | > 100 µM | O=C(O)c1ccccc1Nc1ccc(-c2ccc(Cl)c(Cl)c2)cc1 [Example 18, 2-[4-(3,4-Dichlorophenyl)phenylamino]benzoic acid] |
| 150 to 153 | 22 µM | 6 µM | 68.6 µM | 4.2 µM | O=C(O)c1ccccc1Nc1ccc(CCCc2ccc([N+](=O)[O-])cc2)cc1 [Example 20, 2-{4-[3-(4-Nitrophenyl)propyl]phenylamino}benzoic acid] |
| 224 | 154 µM |  | > 100 µM | > 100 µM | CC(=O)Nc1ccc(CCc2ccc(Nc3ccccc3C(=O)O)cc2)cc1 [Example 35, 2-{4-[2-(4-Acetylaminophenyl)ethyl]phenylamino}benzoic acid] |
| 214 to 215 |  | 1.5 µM | 4 µM | 4.8 µM | CCCCN1CCCc2cc(C=C3SC(=S)N(CCC(=O)O)C3=O)ccc21 [Example 57, 3-{5-[(1-Butyl-1,2,3,4-tetrahydroquinolin-6-yl)methylidene]-4-oxo-2-thioxo-thiazolidin-3-yl)propanoic acid] |
| 152 to 154 |  | 1 µM | 5.1 µM | 3.5 µM | CCCCN1CCCc2cc(C=C3SC(=S)N(CCCC(=O)O)C3=O)ccc21 [Example 58, 4-{5-[(1-Butyl-1,2,3,4-tetrahydroquinolin-6-yl)methylidene]-4oxo-2-thioxo-thiazolidin-3-yl)butanoic acid] |
| 239 to 244 |  | 1.5 µM | 8.98 µM | > 100 µM | O=C(O)c1cc([N+](=O)[O-])ccc1Nc1ccc(CCc2ccc(-c3ccccc3)cc2)cc1 [Example 62, 2-[4-(2-Biphenyl-4-yl-ethyl)phenylamino]-5-nitro-benzoic acid] |
| 180 to 182 | > 60 µM | 3 µM |  | > 100 µM | O=C(O)c1cc(F)ccc1Nc1ccc(CCc2ccc(Cl)c(Cl)c2)cc1 [Example 71, 2-{4-[2-(3,4-Dichloro-phenyl)-ethyl]-phenylamino}-5-fluoro-benzoic acid] |
| 200.5 to 202.5 | > 60 µM |  | 9.49 µM | 18 µM and 15 µM | O=C(O)c1cc([N+](=O)[O-])ccc1Nc1ccc(CCc2ccc(Cl)cc2Cl)cc1 [Example 77, 2-{4-[2-(2,4-Dichloro-phenyl)-ethyl]-phenylamino}-5-nitro-benzoic acid] |
| > 260 | 51 µM | 1 µM and 300 nM (3×) | 9.14 µM |  | CCCCN(CCCC)c1ccc(CCc2ccc(Nc3ccc([N+](=O)[O-])cc3C(=O)O)cc2)cc1 [Example 79, 2-{4-[2-(4-Dibutylamino-phenyl)-ethyl]-phenylamino}-5-nitro-benzoic acid] |
| 159 to 161 | 96 µM | 18 µM and 30 µM |  | > 100 µM | COc1ccc(CCc2ccc(Nc3ccccc3C(=O)O)cc2)cc1OC [Example 116, 2-{4-[2-(3,4-Dimethoxy-phenyl)-ethyl]-phenylamino}-benzoic acid] |
| 155 to 157 | > 60 µM |  | 70.8 µM and 85.2 µM |  | O=C(O)c1ccccc1Nc1cccc(CCc2ccc(Cl)cc2)c1 [Example 123, 2-{3-[2-(4-Chloro-phenyl)-ethyl]-phenylamino}-benzoic acid] |
| 182 to 184 |  | 10 µM | 62.7 µM | > 100 µM | Cc1ccc(CCc2cccc(Nc3ccccc3C(=O)O)c2)cc1C [Example 124, 2-{3-[2-(3,4-Dimethyl-phenyl)-ethyl]-phenylamino}-benzoic acid] |
| 152 to 154 | > 60 µM |  | 75 µM and > 60 µM |  | O=C(O)c1ccccc1Nc1ccc(CCc2cccc(Cl)c2)cc1 [Example 128, 2-{4-[2-(3-Chloro-phenyl)-ethyl]-phenylamino}-benzoic acid] |
| 200 to 202 | > 102 µM | 10 µM and 3 µM and 2 µM (2×) | > 100 µM |  | O=C(O)c1ccccc1Nc1ccc(CCc2ccc(-c3ccccc3)cc2)cc1 [Example 129, 2-[4-(2-Biphenyl-4-yl-ethyl)-phenylamino]-benzoic acid] |
| 181 to 183 | 238 µM |  | 47.5 µM | > 100 µM | O=C(O)c1ccccc1Nc1ccc(CCc2ccc(Cl)cc2Cl)cc1 [Example 130, 2-{4-[2-(2,4-Dichloro-phenyl)-ethyl]-phenylamino}-benzoic acid] |
| 214 to 215 |  | 10 µM | > 100 µM | > 100 µM | O=C(O)c1ccc(Nc2ccc(CCc3ccc(Cl)c(Cl)c3)cc2)cc1 [Example 132, 4-{4-[2-(3,4-Dichloro-phenyl)-ethyl]-phenylamino}-benzoic acid] |
| > 220 | 52 µM | 3 µM |  | > 100 µM | O=C(O)c1ccccc1Nc1ccc(-c2cc(Cl)cc(Cl)c2)cc1 [Example 137, 2-(3′,5′-Dichloro-biphenyl-4-ylamino)-benzoic acid] |
| 106 to 110 | 108 µM |  | > 100 µM | > 100 µM | CCN(CC)c1ccc(Nc2ccc(CCc3ccc(Cl)c(Cl)c3)cc2)c(C(=O)O)c1 [Example 151, 2-{4-[2-(3,4-Dichloro-phenyl)-ethyl]-phenylamino}-5-diethylamino-benzoic acid] |

| Structure (SMILES) | melting point [°C] | IC50 (Aβ (1-40) peptide) | IC50 (Aβ(1-40) [1]) | IC50 (Aβ (1-42)) | IC50 (Aβ(1-40) [2]) |
| --- | --- | --- | --- | --- | --- |
| O=C(O)c1cc([N+](=O)[O-])ccc1Nc1ccc(CCc2ccc(Cl)c(Cl)c2)cc1 [Example 2, 2-{4-[2-(3,4-Dichloro-phenyl)-ethyl]phenylamino}-5-nitrobenzoic acid] | 214 to 217 | 70 µM | 1 µM and 1.5 µM | 6.52 µM | 2.2 µM and 4.1 µM (2×) and 12 µM and 4.5 µM |
| O=C(O)c1cc([N+](=O)[O-])ccc1Nc1ccc(CCCCCc2ccc(Cl)c(Cl)c2)cc1 [Example 13, 2-{4-[5-(3,4-Dichlorophenyl)pentyl]phenylamino}-5-nitrobenzoic acid] | 147 to 148 | 6 µM | 0.9 µM | 6.41 µM | 21 µM and > 100 µM (2×) and 20 µM and 15 µM |
| Cc1ccc(CCc2ccc(Nc3ccc([N+](=O)[O-])cc3C(=O)O)cc2)cc1C [Example 16, 2-{4-[2-(3,4-Dimethyl-phenyl)-ethyl]phenylamino}-5-nitrobenzoic acid] | 214 to 216 | 13 µM | 3 µM (2×) and 1.1 µM and 800 nM and 600 nM | 12 µM and 10.3 µM |  |
